Experimental data taken from patent publication US10688099B2, “Methods for modulating the amount of RNA transcripts” (PTC Therapeutics, Inc., priority 2013, dated 2020).

Tested on: RNA isoforms in PNN 1-46 SMA type I patient-derived fibroblasts
Test: RNA Abundance Modulation (RNA isoform abundance, iFPM, HiSeq RNA sequencing)
Assay type: cell-based, human
Conditions: 3 μM
Procedure: Cells from a cell line of interest are cultured in conditions sufficient to yield the number of cells capable of generating enough RNA for subsequent sequencing steps. Cells from the tested cell line are contacted with a compound described herein.
To culture said cells, they are seeded, at appropriate concentrations in a volume of media in a cell culture container and incubated for 4, 5, 6, 7, 8, 9, 10, or more hours. A concentrated solution of compound in a vehicle (e.g., DMSO) is then added in sufficient volume to result in the intended final concentration of the compound, for example 100 nM, 500 nM, 1 μM, 5 μM, 10 μM, 15 μM, 20 μM, or more. The cells may also be treated with vehicle alone, as a control. A number of replicates of each concentration or control may be made (e.g., 2 replicates). The cells are then incubated at a constant temperature appropriate for cell culture of the particular cell line (e.g., 37° C.) for 6, 12, 18, 24, 48, or more hours. After incubation, the growth medium is removed and the cells are washed with the appropriate buffer (e.g., PBS). Cells are then removed from adherence to the cell culture container by treatment with a solution containing trypsin, and the trypsin subsequently quenched with the appropriate volume of buffer (e.g., DMEM-FBS). The cells are then pelleted with gentle centrifugation (e.g., ≤90×g centrifugal force) and resuspended in a buffer to lyse the cells for extraction of RNA. The cell lysates may then be frozen (e.g., at −80° C.) or, alternately, may immediately be used in a procedure to purify the RNA (e.g. by use of the RNEASY PLUS® minikit). The RNA from cell lysates is eluted in the appropriate volume of buffer (e.g., RNEASE-FREE H2O®). The resulting purified RNA may then be sequenced (e.g., using RNASeq) or analyzed using a human exon array (e.g., by GENECHIP® human exon array) to determine changes in the RNA levels in those cells treated with compound compared to those cells treated only with DMSO. The purified RNA may also be quantified by other methods known in the art.
Using the RNA data obtained from sequencing, exon array, or other methods, a statistical analysis can reveal changes in the RNA levels of compound-treated compared with control. For example, t-test p-values may be calculated for the data obtained through sequencing and exon array methods in order to compare compound-treated cells to those treated with the DMSO control. […] Analysis of the sequencing and exon array data may then also yield predictions about the cause of the aberrant amount of an RNA transcript in the cells (e.g., perturbation of RNA splicing, RNA transcription, or RNA stability). These predictions may be further confirmed by methods known in the art. For example, RT-PCR and RT-qPCR may be used to confirm the change in amount of RNA transcripts for one or more particular transcripts of interest.
Following the methods described above in Example 1, PNN 1-46 SMA type I patient-derived fibroblasts were treated with 300 nM or 3 μM Compounds 774 and 808 in 0.5% DMSO.
700,000 cells were seeded in 10 mL of medium (DMEM plus 10% FBS) in a T-75 flask. Cells were allowed to attach for at least 4 hrs, after which 50 μL of a 200× compound solution (100% DMSO) was added to each well, and the plate was incubated at 37° C. for 24 hrs.
At the end of the incubation period, the supernatant was removed and the cells where washed with PBS. TrypLE (Invitrogen) express solution was added (e.g. 1.5 mL per one T75 flask). The flasks were incubated for 3 to 5 min at 37° C. The trypsin was then quenched, e.g., by adding 10 mL DMEM-FBS.
Next, the cells were pelleted using gentle centrifugation without exceeding 90×g centrifugal force. The supernatant was removed and the cell pellet was re-suspended in 600 μL RLT buffer (the RLT buffer was supplemented with beta-mercaptoethanol according to the RNeasy protocol manual) by pipetting up and down until the pellet was completely dissolved […]

## CCc1nc(C)cn2nc(-c3cc(=O)n4cc(C5CCN(C)CC5)cc(C)c4n3)cc12 [Compound 774]
TIMP2 AK294290
  L2FC (x + 1): −6.520
  L2abs (Cpd-DMSO): 6.50
  abs (Cpd-DMSO): 91 iFPM
  amp FC (x + 1): 91.79
  ave Cpd: 0 iFPM
TIMP2 BC039613
  FC (x + 1): 0.9284
  L2FC (x + 1): −0.107
  L2abs (Cpd-DMSO): 11.17
  abs (Cpd-DMSO): 2306 iFPM
  amp FC (x + 1): 1.08
  ave Cpd: 29887 iFPM
TIMP2 NM_003255
  FC (x + 1): 0.9585
  L2FC (x + 1): −0.061
  L2abs (Cpd-DMSO): 9.77
  abs (Cpd-DMSO): 876 iFPM
  amp FC (x + 1): 1.04
  ave Cpd: 20235 iFPM
TLK1 AK091975
  FC (x + 1): 0.7110
  L2FC (x + 1): −0.492
  L2abs (Cpd-DMSO): 6.56
  abs (Cpd-DMSO): 95 iFPM
  amp FC (x + 1): 1.41
  ave Cpd: 232 iFPM
TLK1 BX537631
  FC (x + 1): 1.2332
  L2FC (x + 1): 0.302
  L2abs (Cpd-DMSO): 0.14
  abs (Cpd-DMSO): 1 iFPM
  amp FC (x + 1): 1.23
  ave Cpd: 5 iFPM
TLK1 E09283
  FC (x + 1): 1.1041
  L2FC (x + 1): 0.143
  L2abs (Cpd-DMSO): 1.54
  abs (Cpd-DMSO): 3 iFPM
  amp FC (x + 1): 1.10
  ave Cpd: 30 iFPM
TLK1 NM_012290
  FC (x + 1): 1.4535
  L2FC (x + 1): 0.540
  L2abs (Cpd-DMSO): 8.52
  abs (Cpd-DMSO): 367 iFPM
  amp FC (x + 1): 1.45
  ave Cpd: 1174 iFPM
TLK1 NM_001136554
  FC (x + 1): 0.3744
  L2FC (x + 1): −1.417
  L2abs (Cpd-DMSO): 8.77
  abs (Cpd-DMSO): 437 iFPM
  amp FC (x + 1): 2.67
  ave Cpd: 260 iFPM
TLK1 NM_001136555
  FC (x + 1): 4.0350
  L2FC (x + 1): 2.013
  L2abs (Cpd-DMSO): 6.40
  abs (Cpd-DMSO): 84 iFPM
  amp FC (x + 1): 4.04
  ave Cpd: 111 iFPM
TMEM154 NM_152680
  FC (x + 1): 2.2609
  L2FC (x + 1): 1.177
  L2abs (Cpd-DMSO): 8.26
  abs (Cpd-DMSO): 306 iFPM
  amp FC (x + 1): 2.26
  ave Cpd: 548 iFPM
TNS3 NM_022748
  FC (x + 1): 0.1472
  L2FC (x + 1): −2.764
  L2abs (Cpd-DMSO): 9.92
  abs (Cpd-DMSO): 971 iFPM
  amp FC (x + 1): 6.79
  ave Cpd: 167 iFPM
TOMM5 CCDS47968
  FC (x + 1): 0.9090
  L2FC (x + 1): −0.138
  L2abs (Cpd-DMSO): −2.28
  abs (Cpd-DMSO): 0 iFPM
  amp FC (x + 1): 1.10
  ave Cpd: 1 iFPM
TOMM5 CR627326
  FC (x + 1): 0.4244
  L2FC (x + 1): −1.236
  L2abs (Cpd-DMSO): 2.64
  abs (Cpd-DMSO): 6 iFPM
